We go through three compounds from patent US7122360B1, “Polypeptides, polynucleotides and uses thereof” (University of Dundee, priority 1998, dated 2006).

The subject of test [1] is MSK1. Nature of the test: LPS-induced activation of MSK1 in RAW 264 macrophages. Format: cell-based, mouse. The note with it: for LPS-stimulated phosphorylation of MSK1: 50 μM PD 98059 or 10 (M SB203580), FIG. 15; for LPS-induced activation of MSK1: LPS 100 ng/ml 1 h, 10 μM UO 126, 10 μM SB 203580, 5 TM Ro 318220. As to the method: FIG. 15. […] After cell lysis aliquots were assayed for either MSK1 (A), MAPKAP-K1 (B), MAPKAP-K2 (C) after their immunoprecipitation from the lysates or immunoblotted for phosphorylation of CREB and ATF1 (D).
FIG. 18. Effect of inhibitors on the LPS-induced activation of protein kinases in RAW 264 macrophages. Macrophages were incubated for 1 h in the presence or absence 10 μM UO 126 (U) and/or 10 μM SB 203580 (SB), or 5 TM Ro 318220 (Ro), then stimulated for 1 h with or without 100 ng/ml LPS in the continued presence or absence of the inhibitors. MSK1(A), MSK2 (B), MAPKAP-KI (C) and MAPKAP-K2 (D) were then assayed after immunoprecipitation from the lysates.
(§1) Cell culture and stimulation. RAW 264 macrophages were maintained in a 95% air/5% CO2 atmosphere in Dulbecco's modified Eagle's medium (DMEM) plus 10% (v/v) heat-inactivated foetal calf serum, 100 U/ml penicillin, […] streptomycin. The day before stimulation, the macrophages were plated at a density of 2×10^6 cells per 6 cm plate and 2 h before stimulation, the medium removed and replaced with 2 ml of DMEM. Where indicated, […] (10 TM) and/or PD 98059 (50 Tm), or U0126 (10 TM) or Ro 318220 (5 TM), were added 1 h before stimulation.
Cell lysis. After stimulation, the medium was aspirated and the cells were solubilized in 0.2 ml of ice cold lysis buffer (50 mM Tris-acetate pH 7.0, 1 mM EDTA, 1 mM EGTA, 1% (w/v) Triton X-100, 1 mM sodium orthovanadate, 10 mM sodium glycerophosphate, 50 mM NaF, 5 mM sodium pyrophosphate, 0.27 M sucrose, 2 TM microcystin-LR, 1 mM benzamidine, 0.1% (v/v) 2-mercaptoethanol and “complete” proteinase inhibitor cocktail—one tablet per 50 ml). The samples were then snap frozen in liquid nitrogen and stored in aliquots at −80° C. until analysis. Protein concentrations were determined according to [7].

Another test has as its system COX-2 mRNA. Nature of the test: COX-2 gene transcription in RAW 264 macrophages, RT-PCR. Format: cell-based, mouse. The conditions noted are these: LPS 3 h, PD 98059 (50 TM), SB 203580 (10 TM), Ro 318220 (5 TM). How it is done:
(§2) FIG. 21. Effect of PD 98059 and SB 203580 on gene transcription in RAW 264 macrophages. (A) Cells were stimulated for the times indicated with LPS (100 ng/ml). Total RNA was extracted at each time point and mRNA encoding IL-1, COX-2 and HRPT was determined using the reverse transcriptase polymerase chain reaction (Section 2.6). (B) As in A, except that the macrophages were incubated for 1 h in the presence or absence of PD 98059 (50 TM) and/or SB 203580 (10 TM), or Ro 318220 (5 TM), then stimulated for 3 h in the absence or presence of LPS, and in the continued presence or absence of the inhibitors. RTPCR was performed using oligonucleotides encoding fragments of IL-1, COX-2 and HPRT.
as §1
(§3) Reverse transcripts polymerase chain reactions. Total RNA was prepared from LPS-stimulated or control RAW 264 cells using the Rneasy Mini Kit according to the manufacturer's protocol. Total RNA was measured and 100 ng was reverse transcribed using Promega AMV reverse transcriptase (5 U/ml) with the oligonucleotides […] and […] TGA (coding for the IL-1 gene) and […] and […] (coding for the COX-2 gene). Conditions for PCR amplification of the resulting first-stand DNA template were 94° C. denaturing for 30 sec, 60° C. annealing for 1 min, 68° C. extension for 1 min, 30 cycles using thermostable Tf1 DNA polymerase (SU/ml), and 1 mM MgSO4.

The next test concerns CREB. The experiment in a line: Arsenite and FGF-induced phosphorylation of CREB in SK-N-MC cells. It counts as cell-based. The note with it: for FGF-induced phosphorylation of CREB: 50 μM PD 98059, 10 μM SB 203580, FGF 50 ng/ml 15 min. As to the method:
(§4) FIG. 14. […] After cell lysis aliquots were assayed for either MSK1 (A), MAPKAP-K1 (B), MAPKAP-K2 (C) after their immunoprecipitation from the lysates or immunoblotted for phosphorylation of CREB and ATF1 (D).
(§5) Immunoblotting for phosphorylated CREB and ATF1. Cell extracts were prepared and immunoblotting of these carried out as described (Tan et al., 1996) using a phosphospecific antibody recognizing CREB phosphorylated on Ser 133 and ATF1 phosphorylated on Ser63 purchased from UBI (Lake Placid, USA). Detection of phosphorylated CREB and ATF1 proteins was performed using the enhanced chemiluminescence reagent (Amersham).

The subject of test [2] is CREB and ATF1. The experiment in a line: TNF induced CREB and ATF1 phosphorylation in HeLa cells. The note with it: for TNF-induced phosphorylation of CREB after 15 min / TNF-induced phosphorylation of CREB and ATF1 after 5 min: 50 μM PD 98059, 10 μM SB 203580. It counts as cell-based. As to the method:
FIG. 12. […] The position of CREB and ATF1 on the blots is indicated. The time of exposure (exp) of the blots before development is indicated.
as §5

The test system of the next test is HPRT mRNA. Nature of the test: HPRT housekeeping gene mRNA in RAW 264 macrophages, RT-PCR. The conditions noted are these: PD 98059 (50 TM), SB 203580 (10 TM), Ro 318220 (5 TM). Format: cell-based, mouse. As to the method: as §2, §1, §3
The subject of test [3] is MSK1. Nature of the test: Arsenite and FGF-induced activation of MSK1 in SK-N-MC cells. It counts as cell-based. The conditions noted are these: for FGF-induced activation of MSK1: 50 μM PD 98059, 10 μM SB 203580, FGF 50 ng/ml 15 min. How it is done:
as §4
Cell Culture, stimulation and cell lysis.

Test [4] deals with CREB and ATF1. Nature of the test: Phosphorylation of CREB (Ser133) and ATF1 (Ser63) in 293 cells, immunoblot. It counts as cell-based, human. The note with it: for EGF-induced CREB phosphorylation: 5 μM Ro 318220, 10 μM SB 203580, 50 μM PD 98059, EGF 100 ng/ml; for UV radiation-induced phosphorylation of CREB and ATF1: 5 μM Ro 318220, 10 μM SB 203580, 50 μM PD 98059. How it is done: FIG. 10. […] 293 cells were pre-treated either in the presence or absence of 5 μM Ro 318220 (Ro), 10 μM SB 203580 (SB), 50 μM PD 98059 (PD), and then exposed to either (A, D) UV radiation (200 J/m^2, 30 min and then 30 min at 37° C.) (B, E) EGF (100 ng/ml, 15 min), (C) forskolin (20 μM, 15 min). The cells were lysed and proteins were separated on 10% acrylamide gels and immunoblotted using a phosphospecific antibody that recognised both CREB and ATF1 when phosphorylated on Ser133 and Ser63 respectively. The position of CREB and ATF1 on the blots is indicated.
as §5

Another test deals with IL-1 mRNA. The experiment in a line: IL-1 gene transcription in RAW 264 macrophages, RT-PCR. Format: cell-based, mouse. The note with it: LPS 3 h, PD 98059 (50 TM), SB 203580 (10 TM), Ro 318220 (5 TM). How it is done: as §2, §1, §3
Setting [5] is: 50 μM PD 98059, 10 μM SB 203580, arsenite 0.5 mM 15 min.

Entries after “also recorded” stand apart in the source; their conditions may differ.

With `COc1cccc(-c2cc(=O)c3ccccc3o2)c1N` [PD 98059], the “LPS-stimulated phosphorylation of MSK1” value with MSK1 [1] was “appear to inhibit”. In addition, in the test with COX-2 mRNA, the “LPS induction of COX-2 mRNA” value was “partially suppressed”. In the test on CREB, the “FGF-induced phosphorylation of CREB” value was “only inhibited slightly; also recorded: did not significantly suppress”. For the same compound, in the test with CREB and ATF1 [2], the “TNF-induced phosphorylation of CREB after 15 min” value is reported as “slightly suppressed”; the “TNF-induced phosphorylation of CREB and ATF1 after 5 min” value is on record as “unaffected”. Besides, in the test with HPRT mRNA, the “mRNA encoding the housekeeping gene HPRT” value is recorded as “unaffected”. In the test on MSK1 [3], the “FGF-induced activation of MSK1” value is on record as “only partially suppressed”. Also, the “EGF-induced CREB phosphorylation” value in the test on CREB and ATF1 [4] was “prevented”. Moreover, the “LPS induction of IL-1 mRNA” value in the test on IL-1 mRNA is “partially inhibited”.

Consider `Cn1cc(C2=C(c3cn(CCCSC(=N)N)c4ccccc34)C(=O)NC2=O)c2ccccc21` [Ro 318220], for which the “LPS-induced activation of MSK1” value with MSK1 [1] is recorded as “does not affect”. Besides, the “LPS induction of COX-2 mRNA” value in the test on COX-2 mRNA is given as “suppresses”. For the same compound, the “phosphorylation of CREB at Ser133” value in the test with CREB (sodium arsenite or FGF, 5 μM Ro 318220) is recorded as “largely suppressed”. For the same compound, the “TNF-induced CREB phosphorylation” value in the test on CREB and ATF1 [2] (5 μM Ro 318220) is “completely blocked”. In addition, in the test on HPRT mRNA, the “mRNA encoding the housekeeping gene HPRT” value is “unaffected”. In addition, in the test with MSK1 [3] (5 μM Ro 318220, inhibitor removed on immunoprecipitation), the “MSK1 activation in cells” value is given as “does not affect MSK1 activation”. In the test with CREB and ATF1 [4], the “UV radiation-induced phosphorylation of CREB and ATF1” value is recorded as “largely inhibited”; the “EGF-induced CREB phosphorylation” value is “largely inhibited”. Also, in the test on CREB and ATF1 [4] (5 μM Ro 318220, forskolin 20 μM, 15 min), the “phosphorylation of CREB and ATF1 induced by forskolin” value is reported as “unaffected”. Further, the “LPS induction of IL-1 mRNA” value with IL-1 mRNA is recorded as “suppresses”.

On to `C[S+]([O-])c1ccc(-c2nc(-c3ccncc3)c(-c3ccc(F)cc3)[nH]2)cc1` (centres unmarked) [SB 203580], for which, in the test on MSK1 [1], the “LPS-stimulated phosphorylation of MSK1” value is on record as “appear to inhibit” and the “LPS-induced activation of MSK1” value is “only inhibited partially”. The “LPS induction of COX-2 mRNA” value in the test with COX-2 mRNA is “partially suppressed”. Besides, the “FGF-induced phosphorylation of CREB” value in the test on CREB is given as “only inhibited slightly”. Besides, the “sodium arsenite-induced activation of CREB” value with CREB (setting [5]) is “prevented”. Moreover, in the test with CREB and ATF1 [2], the “TNF-induced phosphorylation of CREB after 15 min” value is “partially suppressed”; the “TNF-induced phosphorylation of CREB and ATF1 after 5 min” value was “prevented”. The “mRNA encoding the housekeeping gene HPRT” value in the test with HPRT mRNA is “unaffected”. For the same compound, in the test on MSK1 [3], the “FGF-induced activation of MSK1” value is recorded as “only partially suppressed”. Moreover, the “sodium arsenite-induced activation of MSK1” value in the test with MSK1 [3] (setting [5]) was “prevented”. Moreover, in the test with CREB and ATF1 [4], the “UV radiation-induced phosphorylation of CREB and ATF1” value is on record as “inhibited”; the “EGF-induced CREB phosphorylation” value is recorded as “not SB203580”. For the same compound, the “LPS induction of IL-1 mRNA” value in the test with IL-1 mRNA is “partially inhibited”.
